Test results from patent US20240391800A1, “HYPERSALINE DESALINATION USING IONIC LIQUIDS AND LOW-TEMPERATURE HEAT” (UNIVERSITY OF NOTRE DAME DU LAC, priority 2021, published 2024).
Several values for one entry are separate records, joined by “and”; a condition that tells them apart may be missing. Equal entries are not always repeated. Each block holds one molecule with its values, some of them ahead of it.

Assays:
[1] = Solubility of ionic liquid in water (LC-MS of [Tf2N]-); conditions: for Solubility in H2O: Table 7 / Example 2; for Solubility in H2O (ppm): IL in water / residual in recovered water
Procedure: Samples with different IL/water ratios are mixed in beaker with stirring speed of 300 rpm for 10 hours, and then a 3-hour sitting period was allowed to guarantee thermodynamic equilibrium of dissolution. Because the ILs tested have higher density than water, the solution in the top layer was extracted as the sample. […] The intensity of a certain ion acquired by the mass spectrometer proportionally reflected the concentration of this kind of ion in the water solution.

[2] = Directional solvent extraction (DSE) desalination cycle, moderate / seawater-salinity NaCl feed; conditions: seawater salinity feedwater (3.5 wt %, 14,000 ppm Na+)
Procedure: The mixture was maintained at that temperature for ˜10 minutes for phase separation, expecting the brine to separate from the IL. The IL phase, which contained pure water dissolved within it, was collected, and cooled down to room temperature, precipitating out the fresh water due to lowered solubility in the IL. The separation of these two phases was facilitated by a centrifuge at 3000 rpm. The amount of recovered water was used to calculate the yield, and the water was also characterized for contents of NaCl ions and residual ILs to verify directional solubilities. The NaCl ion concentration was measured using Perkin Elmer Optima 8000 ICP-OES and the IL content is measured using Waters TQD triple mass spectrometer coupled to an Acquity ultrahigh pressure liquid chromatography system.
All Na^+ concentration measurements were performed using Perkin Elmer Optima 8000 ICP-OES. Since all water samples in the experiment were deionized water, it was rational to assume that the molar concentration of Na^+ was equal to that of NaCl. […] A set of calibration curves of conductivity versus Na^+ ion concentration was created prior to the measurements. […] Samples with different IL/water ratios are mixed in beaker with stirring speed of 300 rpm for 10 hours, and then a 3-hour sitting period was allowed to guarantee thermodynamic equilibrium of dissolution. Because the ILs tested have higher density than water, the solution in the top layer was extracted as the sample. […] The intensity of a certain ion acquired by the mass spectrometer proportionally reflected the concentration of this kind of ion in the water solution.
The DS performance in a DSE desalination cycle was evaluated for the assembled ILs, which involved first exposure to water bearing 3.7-5.0 wt % of NaCl (11,000-15,000 ppm of Na^+) followed by thorough mixing at elevated temperatures of 45, 60 or 75° C. […] The amount of residual NaCl and IL in the recovered aqueous phase was then measured using atomic emission spectroscopy and liquid chromatography-mass spectrometry.

[3] = Ionic liquid concentration / solubility in NaCl solution or brine; format: physicochemical
Procedure: Additional experiments were performed to measure IL concentration in the brine with different salinities. In these experiments, the brine (MX, FIG. 1) salinity is 4% or higher depending on the initial mixing ratio of the saline water and IL.

[4] = Viscosity (rheometer); format: physicochemical; conditions: for Viscosity: TA Instrument Discovery HR-2, temperature not stated; for Viscosity in Pa · s: 293 K
Procedure: Table 3. The viscosity was measured with Discovery Hybrid Rheometer 2.

[5] = DSE desalination cycle, high-salinity / saturated / hypersaline NaCl feed

SMILES: CC[n+]1ccn(C)n1 [[1,2,3-emtriz][Tf2N], 1-ethyl-3-methyl-1,2,3-triazolium bistriflimide]
- Solubility in H2O [1]: ~390 ppm
- Ion rejection, seawater concentration [2]: 92.5%
- solubility in 4% NaCl solution [3]: about 41 ppm
- Viscosity [4]: 0.035 Pa · s

SMILES: CC(C)C[C@H](NS(=O)(=O)C(F)(F)F)C(=O)O.CCCCCCCC[P+](CCCC)(CCCC)CCCC [[P4448] I-Leu, Tributyloctylphosphonium trifluoromethanesulfonylleucine]
- Viscosity in Pa · s [4]: 1.017 ± 0.078 Pa · s

SMILES: CCCCCCCC[P+](CCCC)(CCCC)CCCC [[P4448][Bzlm]] [Tributyloctylphosphonium benzo[d]imidazol-1-ide]
- Viscosity in Pa · s [4]: 0.185 ± 0.092 Pa · s

SMILES: CCCCCCCC[P+](CCCC)(CCCC)CCCC [[P4448][Tf2N]] [Tributyloctylphosphonium bis(trifluoromethanesulfonyl)imide]
- Viscosity in Pa · s [4]: 0.433 Pa · s and 0.433 ± 0.099 Pa · s

SMILES: CCCCn1cc[n+](C)c1 [[bmim][Tf2N], 1-Butyl-3-methylimidazolium bis(trifluoromethylsulfonyl)imide]
- Solubility in H2O (ppm) [1]: <90 ppm
- Viscosity in Pa · s [4]: 0.056 ± 0.010 Pa · s

Further lines, with some results ahead:

- Viscosity in Pa · s [4]: 0.081 ± 0.059 Pa · s
SMILES: CCCCCCCCCCCCCC[P+](CCCCCC)(CCCCCC)CCCCCC [[P66614][Tf2N], Trihexyltetradecylphosphonium bis(trifluoromethanesulfonyl)imide]

- Solubility in H2O (ppm) [1]: 130-150 ppm
- IL concentration in the brine (MX) ([3]; brine with 4% salinity): 4 ppm
- IL solubility in saturated NaCl solution ([3]; saturated NaCl solution): lower than 4 ppm
- Viscosity in Pa · s [4]: 0.033 ± 0.014 Pa · s
SMILES: CCn1cc[n+](C)c1 [[emim][Tf2N], 1-Ethyl-3-methylimidazolium bis(trifluoromethylsulfonyl)imide]

- Solubility in H2O [1]: ~270 ppm
- solubility in 4% NaCl solution [3]: about 26 ppm
- Viscosity [4]: 0.056 Pa · s
SMILES: COC[n+]1ccn(C)c1 [[mommim][Tf2N], 1-(methoxymethyl)-3-methyl-1H-imidazol-3-ium bis(trifluoromethylsulfonyl)imide]
- Ion rejection, seawater concentration [2]: 95.2%
- highest salt rejection rate obtained ([5]; NaCl 19.6 wt % hypersaline feed): 95.8%
- Ion rejection, hypersaline ([5]; NaCl 19.6 wt %, Na+ 77,300 ppm feed, average of samples): 89.5%
